Experimental data from paper PMC12037037 (Proceedings of the National Academy of Sciences of the …, 2025).

Legend:
[1] = test system: E18 rat embryonic cortical neurons (DIV18-19); assay: Spinogenesis assay using cultured rat cortical neurons; assay type: cell-based; settings: compound 1 μM
[2] = biological target: 5-HT1B (h) (antagonist radioligand); design: method as in ref Pharmacological Differentiation and Characterization of 5-HT1A, 5-HT1B, and 5-HT1C Binding Sites in Rat Frontal Cortex; settings: read-out: Ki of LSD; radioligand 5-HT; Rat cortex; ref Pharmacological Differentiation and Characterization of 5-HT1A, 5-HT1B, and 5-HT1C Binding Sites in Rat Frontal Cortex; cited from earlier work
[3] = biological target: 5-HT2B (h) (agonist radioligand); settings: read-out: Ki of LSD; radioligand 5-HT; Human cloned; ref Pharmacological characterisation of the agonist radioligand binding site of 5-HT(2A), 5-HT(2B) and 5-HT(2C) receptors; cited from earlier work
[4] = biological target: 5-HT5a (h) (agonist radioligand); settings: read-out: Ki of LSD, Rat cloned, ref Lysergamides of isomeric 2,4-dimethylazetidines map the binding orientation of the diethylamide moiety in the potent hallucinogenic agent N,N-diethyllysergamide (LSD); cited from earlier work
[5] = biological target: 5-HT7 (h) (agonist radioligand); design: method as in Molecular biology of 5-HT receptors; settings: read-out: Ki of LSD; radioligand 5-HT; Rat cloned; ref Molecular biology of 5-HT receptors; cited from earlier work
[6] = biological target: alpha 1 (non-selective) (antagonist radioligand); design: method as in ref Receptor interaction profiles of novel N-2-methoxybenzyl (NBOMe) derivatives of 2,5-dimethoxy-substituted phenethylamines (2C drugs); settings: read-out: Ki of LSD; radioligand prazosin; Human cloned; ref Receptor interaction profiles of novel N-2-methoxybenzyl (NBOMe) derivatives of 2,5-dimethoxy-substituted phenethylamines (2C drugs); cited from earlier work
[7] = biological target: alpha 2 (non-selective) (antagonist radioligand); design: method as in ref Receptor interaction profiles of novel N-2-methoxybenzyl (NBOMe) derivatives of 2,5-dimethoxy-substituted phenethylamines (2C drugs); settings: read-out: Ki of LSD; radioligand Rauwolscine; Human cloned; ref Receptor interaction profiles of novel N-2-methoxybenzyl (NBOMe) derivatives of 2,5-dimethoxy-substituted phenethylamines (2C drugs); cited from earlier work
[8] = biological target: D1 (h) (antagonist radioligand); design: method as in ref Mefloquine and psychotomimetics share neurotransmitter receptor and transporter interactions in vitro; settings: read-out: Ki of LSD; radioligand SCH 23390; Human cloned; ref Mefloquine and psychotomimetics share neurotransmitter receptor and transporter interactions in vitro; cited from earlier work
[9] = biological target: D2S (h) (antagonist radioligand); design: method as in ref Mefloquine and psychotomimetics share neurotransmitter receptor and transporter interactions in vitro; settings: read-out: Ki of LSD; radioligand [3H]YM-09151-2; Human cloned; ref Mefloquine and psychotomimetics share neurotransmitter receptor and transporter interactions in vitro; cited from earlier work
[10] = biological target: beta 1 (h) (agonist radioligand); settings: read-out: Ki of LSD; radioligand 125I-pindolol; Rat cloned; ref Lysergamides of isomeric 2,4-dimethylazetidines map the binding orientation of the diethylamide moiety in the potent hallucinogenic agent N,N-diethyllysergamide (LSD); cited from earlier work
[11] = test system: Thy1-EGFP mice, layer 2/3 of the mPFC; assay: In vivo spinogenesis after chronic corticosterone administration; settings: chronic CORT (20 mg/kg IP daily, 20 d) + VEH; GH VEH 12.17 ± 0.5278; mean ± SEM
Method: In Vivo Spinogenesis after chronic corticosterone administration. Male and female Thy1-EGFP mice were given 1 week to acclimate to the new vivarium, then transferred to new cages (individually housed). Once individually housed, the mice were administered corticosterone (20 mg/kg; IP) in DMSO (2 mL/kg) or gently handled daily for 20 days. On day 21, mice were treated with VEH (saline) or (+)-JRT (1 mg/kg; IP). After 24 h, mice were anesthetized with isoflurane and transcardially perfused with paraformaldehyde (PFA, 4% in PBS, 7.4 pH). After extraction of the brains, samples were fixed in 4% PFA at 4° C overnight. The brains were cryo-protected by immersion in a 15% sucrose solution (15% sucrose in PBS w/v) overnight. Next, samples were placed in 30% sucrose solution (30% sucrose in PBS w/v) for at least 1 day. Samples were then embedded in optimal cutting temperature compound (OCT), sliced into 100 µm coronal sections using a cryostat, and mounted on slides which were left in the dark overnight to dry. Coverslips were mounted onto microscope slides using ProLong Gold. Slides were imaged on a Nikon HCA Spinning Disc confocal microscope equipped with a 100x/NA 1.45 oil objective. Images of dendrites and dendritic spines within layer 2/3 of the mPFC were captured and manually counted by a trained experimenter blinded to treatment conditions.

C57BL/6J mice = assay: Sucrose preference test (SPT) after chronic CORT; assay type: in vivo; settings: after 20 d CORT 20 mg/kg IP; baseline 0.7980 ± 0.03533
Method: remained housed in groups of three for the remainder of the study. All rats were acclimated to the colony room for up to one week prior to dosing. During the period of acclimation, rats were examined and handled daily, and weighed to assure adequate health and suitability. The room temperature was maintained between 20 °C and 23 °C with a relative humidity of 30%–70%. Lab Rodent Diet 5001 (W.F. Fisher, Cat # 11015) and water were provided ad libitum. Animals were randomly assigned across treatment groups. All testing was performed during the light phase of the light/dark cycle. Behavioral testing was conducted according to established protocols approved by the IACUC committee and PGI Standard Operation Procedures (SOP). […] All animals were carefully monitored to ensure their safety in the swim test and any animal unable to maintain a posture with its nose above water was immediately removed from the water and not used further in the study. […] This test lasted for 5 min and was video recorded. A blinded experimenter manually scored the videos for swimming, climbing, and immobility behavior. Scoring of the forced swim test was performed by trained technicians using a time sampling technique in which the animal in the video recorded test was viewed every 5 seconds and the behavior observed was noted (e.g., immobile, swimming, or climbing). […]

[12] = biological target: 5-HT2A receptor membrane preparations obtained from PSYLI2 cells (Homo sapiens, UniProt P28223); assay: Ligand binding kinetics with [3H]-LSD on PSYLI2 membrane preparations; settings: kinetics of competition binding vs [3H]-LSD
Chain of 5-HT2A receptor membrane preparations obtained from PSYLI2 cells (P28223 1-263 limits assumed): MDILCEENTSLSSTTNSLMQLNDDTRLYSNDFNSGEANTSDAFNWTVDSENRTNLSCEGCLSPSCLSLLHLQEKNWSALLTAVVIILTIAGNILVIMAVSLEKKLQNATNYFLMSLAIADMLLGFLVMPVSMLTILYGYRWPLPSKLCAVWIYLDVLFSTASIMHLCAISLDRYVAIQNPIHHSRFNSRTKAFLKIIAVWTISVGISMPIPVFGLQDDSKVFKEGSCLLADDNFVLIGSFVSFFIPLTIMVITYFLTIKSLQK
Chain of 5-HT2A receptor membrane preparations obtained from PSYLI2 cells (P28223 316-471 limits assumed): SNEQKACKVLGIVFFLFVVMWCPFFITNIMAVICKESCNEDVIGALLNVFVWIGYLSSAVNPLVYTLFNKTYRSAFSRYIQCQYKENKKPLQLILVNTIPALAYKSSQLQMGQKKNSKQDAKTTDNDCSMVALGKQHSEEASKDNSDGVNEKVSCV
Method: Ligand binding kinetics at the 5-HT2AR.
Data represent the mean ± SEM of 2–3 biological replicates.
Data represent the mean ± SEM of 2–4 biological replicates.
Binding buffer consisted of 50 mM Tris HCl, 10 mM MgCl2, 0.1 mM EDTA disodium dihydrate in autoclaved
deionized water. The solution was adjusted to pH 7.4 with 10 M NaOH(aq) and stored at 4 °C. This solution was used in
membrane preparation generation as well as competition and kinetics assays.
free, see 15) were grown in 15-cm plates with Dulbecco’s Modified Eagle Media (DMEM) containing 10% fetal bovine serum and 1% penicillin/streptomycin. When the cells were >90% confluent, the media was removed, and the cells were washed
with Dulbecco’s Phosphate Buffered Saline (DPBS) (15 mL). Next, DMEM (15 mL) lacking fetal bovine serum and
penicillin/streptomycin was added, and the cells were serum-starved for 4–12 hours. Roughly 10 mL of the DMEM was
removed, leaving ~5 mL of media in the plates before placing them on ice. Once on ice, the plates were scraped and the
contents were transferred to a pre-chilled 50 mL Falcon tube and then centrifuged (2,000 g, 10 min, 4 °C). The supernatant […]
of 0.25 mL to use for quantification of protein concentration via a Bradford assay with a Coomassie protein assay reagent. […]
For association binding experiments, total and nonspecific binding was determined by adding binding buffer (2.5X solution, […]

CCN(CC)C(=O)[C@@H]1C=C2c3cccc4[nH]cc(c34)C[C@H]2N(C)C1 [LSD, lysergic acid diethylamide]
Effect of ketanserin (10 μM) pretreatment on compound-induced dendritic spine density [1]: blocks
Ki [2]: 170 nM
Ki [3]: 0.977 nM
Ki [4]: 9 nM
Ki [5]: 200 nM
Ki [6]: 670 nM
Ki [7]: 12 nM
Ki [8]: 273 nM
Ki [9]: 38 nM
Ki [10]: 140 nM

C[C@]12C[C@H](O)[C@H]3[C@@H](CCC4=CC(=O)CC[C@@]43C)[C@@H]1CC[C@@H]2C(=O)CO [CORT, corticosterone, reference compound]
Dendritic spine density, layer 2/3 mPFC (Table S1, matches Fig. 4N) [11]: 8.570 ± 0.4350
Sucrose preference post-CORT (Figure 6D) (C57BL/6J mice): 0.5563 ± 0.08424

CCN(CC)CCc1c[nH]c2cc(F)ccc12 [6-F-DET, 6-fluoro-N,N-diethyltryptamine, reference compound]
Dissociation rate from the 5-HT2A receptor, fold faster than LSD [12]: ~100 fold
